Source: US20240058316A1, “PRODRUG OF A PHENOLIC TRPV1 AGONIST FOR THE TREATMENT OF PAIN” (Concentric Analgesics, Inc., priority 2020, published 2024)

Experiments:
[1] = background statement; cited from earlier work
[2] = Aqueous solubility (descriptive statement); format: physicochemical
[3] = system: postoperative pain after a bunionectomy; experiment: Phase 2 randomized, double-blind, placebo-controlled study in subjects undergoing bunionectomy; format: in vivo, human; conditions: for reduction in opioid consumption: FIG. 3
Procedure: Compound 1 was investigated as a potential therapy for treatment of pain following bunionectomy. Compound 1 was administered (injected and instilled) directly into the postoperative wound during the surgery. This study is a follow-on placebo-controlled efficacy and safety study which includes assessments of wound healing and a PK study in enrolled subjects.
• This trial was designed to determine the efficacy of study treatment (Compound 1 vs. placebo) infiltrated/instilled during surgery in treating postoperative pain after a bunionectomy in the setting of multimodal analgesia in addition to a Mayo block with bupivacaine in the first 24 h (FIG. 1).
Protocol: This Phase 2, multi-center, randomized, double-blind, placebo-controlled, parallel design study evaluated a single dose of one of three Compound 1 dose groups vs. placebo injected during an elective BUNX with a multimodal analgesia regimen including an NSAID and regional Mayo block with bupivacaine. The study was conducted in two parts: • Inpatient period which continued to 96h after completion of study treatment injection (TO) or T96h. • Outpatient period which began on discharge from the inpatient unit through various follow visits to D29±2 (W4) after surgery, or if necessary for ongoing safety assessments, to D36±2 (W5).
Subjects underwent unilateral transpositional first metatarsal osteotomy for the correction of hallux valgus deformity (bunionectomy or BUNX). The surgery was performed under light to moderate sedation anesthesia (what constitutes this level of sedation and the additional anesthetic medications used per discretion of the anesthesiologist). In accordance with standard of care, light to moderate sedation was supplemented with a Mayo block to produce surgical anesthesia and postoperative analgesia. After administering light to moderate sedation, but prior to surgery, performed a Mayo block by infiltrating 0.5% bupivacaine hydrochloride (up to 30 mL total volume, 150 mg) at least 3 cm proximal to the “surgical site”. The Mayo block was performed at 15-30 minutes prior to study treatment dosing. “Surgical site” is defined as the area extending approximately 2-3 cm in all directions (lateral/medial/proximal/distal) from the incision site and surrounding tissues which may be affected by the infiltration of study treatment.
After the surgery, subjects were monitored for 96 hours in an inpatient unit. Safety and efficacy evaluations were performed. […] Subjects were required to meet certain pre-specified criteria prior to discharge.
T0 is the time that the study treatment injection/instillation is completed.
Following surgery, subjects were transferred to the appropriate recovery unit where they underwent various assessments over the next 96 hours (end of surgery [EOS] to T96h). In addition to the Mayo block noted above, a multimodal analgesia regimen included the following during the immediate postoperative period: • Ketorolac 30 mg IV (a non-steroidal anti-inflammatory drug (NSAID) to be administered intraoperatively before the end of surgery. Per investigator discretion, adjust the dose as necessary for subject age and medical condition. • Acetaminophen 1000 mg IV to be administered intraoperatively before the end of surgery.
After the non-opioid analgesics noted above has been administered, no additional NSAIDs or acetaminophen were administered during the inpatient phase of the study (through T96h). Additionally, the following rescue medication was able to be administered for any moderate to severe breakthrough pain during the inpatient period: • PO oxycodone 5 mg prn q2h in the first 12 hours after surgery for moderate or severe pain (≥4) as reported by subjects using the 0 to 10 numerical rating scale of current pain intensity (NRS). • PO oxycodone 5 mg prn q4h from 12 to 96 hours after surgery for moderate or severe pain (NRS≥4).
After surgery, subjects were monitored for 96 hours (through T96h) at the trial site as an inpatient.

[4] = system: pain in subjects undergoing surgery to repair a ventral hernia; experiment: Randomized, double-blind, placebo-controlled study in subjects undergoing ventral hernia repair (laparotomy); format: in vivo, human
[5] = system: pain following TKA surgery; experiment: Phase 1/2 randomized, double-blind, placebo-controlled study in patients undergoing total knee arthroplasty (TKA); format: in vivo, human
[6] = bunionectomy, 4.2 mg (0.3 mg/mL)

water solubility [2]	Compound	solubility in aqueous media or local anesthetic solutions [1]	pain reduction ([3]; bunionectomy, 0.15 mg/mL (2.1 mg), FIG. 2)	reduction in opioid consumption ([3]; bunionectomy, 2.1 mg (0.15 mg/mL))	reduction in pain [3, 6]	reduction in opioid consumption [3, 6]	persistence of analgesic effect ([3]; bunionectomy, 4.2 mg, FIG. 4)	dose of maximum analgesic effect ([3]; bunionectomy, concentration of 0.3 mg/mL)	reductions of pain and opioid consumption ([3]; single administration during surgery, bunionectomy patients)	reductions in pain ([4]; 36 mg (0.3 mg/mL))	reduction in pain at rest compared to placebo ([4]; 36 mg (0.3 mg/mL), FIG. 9)	reduction in pain with coughing compared to placebo ([4]; 36 mg (0.3 mg/mL), FIG. 9)	reduction in opioid consumption compared to placebo ([4]; FIG. 9)	reductions in pain ([5]; 36 mg (0.3 mg/mL), FIG. 7)	reduction in opioid consumption ([5]; 36 mg (0.3 mg/mL), FIG. 8)	analgesic activity ([5]; 60 mg (0.5 mg/mL), compared with 36 mg)
–	COc1cc(CNC(=O)CCCC/C=C/C(C)C)ccc1O [Capsaicin]	virtually insoluble	–	–	–	–	–	–	–	–	–	–	–	–	–	–
highly water-soluble	CNCC1CCCCN1C(=O)Oc1ccc(CNC(=O)CCCC/C=C/C(C)C)cc1OC (stereo not shown) [Compound 1, (E)-2-methoxy-4-((8-methylnon-6-enamido)methyl)phenyl 2-((methylamino)methyl)piperidine-1-carboxylate]	–	trend in pain reduction	statistically significant reduction in opioid consumption	statistically significant reduction in pain	statistically significant reduction in opioid consumption	≥ 15 days	4.2 mg	long lasting reductions of pain and opioid consumption	long lasting reductions in pain	21%	46%	26%	long lasting reductions in pain	significant reduction in opioid consumption	lower analgesic activity which was of a shorter duration
